Laboratory results from the supplement of paper PMC8837787.

system: Saccharomyces cerevisiae ABC16-Green Monster; test: growth inhibition at single dose (up to 150 µM), below the 70% cut-off for dose-response; higher = more potent; details: 18 h; 30 °C; YPD
Outline: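 Values are percent growth inhibition of drug-sensitive S. cerevisiae ABC16-Green Monster cells. Cells grown overnight in YPD at 30 °C were diluted to log phase (OD600 0.1–0.2), and each library compound was added at a single dose of 150 µM to 200 µl culture per well in 96-well plates, in biological duplicates, beside untreated cultures. OD600 was read at 0 h and after 18 h at 30 °C, and compounds under 70% in both replicates were not taken to dose-response.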

Structure (SMILES) | growth inhibition at single dose [%]
COc1ccc(C(C)=O)cc1N1C(=O)C2C(C1=O)C1(c3ccccc3)C(=O)C2(c2ccccc2)C(c2ccc(C)cc2)=C1c1ccc(C)cc1 (stereo not drawn) | < 70
CC(=O)Oc1ccccc1C(=O)Nc1ncc([N+](=O)[O-])s1 | < 70
COc1ccc(-c2nc(-c3cccc(NC(=O)Cc4ccc(F)cc4)c3)no2)cc1OC | < 70
Cc1nc2ccccn2c1C(=O)NCc1ccc(Cl)cc1 | < 70
O=C(/C=C/c1ccc([N+](=O)[O-])cc1)NCC(=O)N1CCN(S(=O)(=O)c2ccc(Cl)cc2)CC1 | < 70
Cc1cc(C(=O)C(C)Sc2nnnn2C2CC2)c(C)n1-c1ccccc1 (stereo not drawn) | < 70
Cc1ccc2cc(C3NC(=O)c4ccccc4N3)c(Cl)nc2c1 (stereo not drawn) | < 70
CCOc1ccc(-c2nonc2NC(=O)c2cccc(C)c2)cc1OCC | < 70
Cc1cc2nnc(-c3ccc(C(F)(F)F)cc3)n2[nH]1 | < 70
O=C(NCc1ccc(N2CCCC2=O)cc1)c1cccnc1OCC(F)(F)F | < 70
Cc1ccc(Cn2ccs/c2=N/C(=O)c2cc3c(s2)CCCCC3)cc1 | < 70
CSC1=NC(=Nc2c(C)cccc2C)C2(CCC(C(C)(C)C)CC2)N1c1ccc(Cl)cc1 (stereo not drawn) | < 70
CC(=O)O[C@H]1CC[C@]2(C)C3CC[C@]4(C)C(C5=CC(=O)OC5)CC[C@]4(O)C3CC[C@@H]2C1 (stereo partly drawn) | < 70
CCc1ccc(S(=O)(=O)Nc2cc(CN3CCN(CCC(C)C)CC3)ccc2C)cc1 | < 70
C/N=c1\scc(-c2ccc(OC(F)F)cc2)n1/N=C/c1cccs1 | < 70
CCOc1ccc2c(c1)CN(Cc1ccc(Cl)cc1)CO2 | < 70
CC(C)c1nc2cc(NC(=O)CSc3nnnn3C3CC3)ccc2o1 | < 70
CCOC(=O)c1c(C)n(-c2ccc(Cl)cc2)c2ccc(OC(=O)C=Cc3ccccc3)cc12 | < 70
CN1CCN(c2ccc(Cl)cc2NC(=O)c2cccc(Oc3ccccc3)c2)CC1 | < 70
COc1cccc(NC(=O)c2c(NC(=O)c3cccnc3)sc3c2CCC3)c1 | < 70
CCCCCCOC(=O)C1=C(C)NC(=O)NC1c1ccccc1F (stereo not drawn) | < 70
Cc1nc(NCCNc2cnccn2)c2c(-c3cccs3)csc2n1 | < 70
NCCCC(N)(C(=O)O)C(F)F (stereo not drawn) | < 70
Cc1ccc(S(=O)(=O)Nc2cccc3ncccc23)s1 | < 70

Structure (SMILES) | growth inhibition at single dose [%]
CC(C(=O)Nc1ccc2oc(-c3ccncc3)nc2c1)c1ccccc1 (stereo not drawn) | < 70
CCCCOc1ccc(C(=O)Nc2cc(C)on2)cc1 | < 70
CCn1nc(C(=O)NCc2ccc(OC)cc2)c2c1CCN(C(=O)c1cc(C)n[nH]1)C2 | < 70
CN(C)CCCNc1c2ccccc2nc2ccccc12 | < 70
Cc1cc(C(=O)Nc2nc3ccccc3s2)c(C)n1C(C)C | < 70
CCOc1ccc(-c2nc(C(=O)Nc3ncccc3O)cs2)cc1 | < 70
Cc1noc(C)c1S(=O)(=O)N(Cc1ccc(C(=O)NC2CC2)cc1)C1CC1 | < 70
O=C(NC1CCN(c2nccc(C(F)(F)F)n2)CC1)c1ccco1 | < 70
Cc1cccc(N2CCN(C(=O)c3ccc4[nH]c(C)c(C)c4c3)CC2)c1C | < 70
CC(C)(C)NS(=O)(=O)c1cccc2c(N)cccc12 | < 70
COC(=O)c1c(NC(=O)c2cc3ccccc3oc2=O)sc2c1CCN(Cc1ccccc1)C2 | < 70
N#Cc1ccnc(N2CCN(C(=O)c3cccc(-n4cccc4)c3)CC2)c1 | < 70
O=C(Nc1ccc(N2CCCCCC2)cc1)c1ccc[nH]1 | < 70
O=C(NC1CCN(c2nccc(C(F)(F)F)n2)CC1)c1cccs1 | < 70
Cc1cc(C(=O)NCc2nnc3ccccn23)c(C)n1C1CCCCC1 | < 70
Cc1cc(C)cc(Nc2cc(C)nc3nc(C(F)(F)F)nn23)c1 | < 70
COc1ccccc1CNC(=O)CCn1c(=O)[nH]c2ccccc2c1=O | < 70
COc1ccc(-c2csc3ncnc(NCC(=O)NC(C)C)c23)cc1 | < 70
COc1cccc(C(=O)Nc2ccc(-c3nc4ccccc4[nH]3)cc2)c1 | < 70
O=C(CSc1nccn2nc(-c3ccccc3)cc12)Nc1cc(C(F)(F)F)ccc1Cl | < 70
O=c1c2ccccc2[nH]c2ccc(Oc3ncnc4ccsc34)cc12 | < 70
Cc1cc(N2CCN(C)CC2)n2ncc(-c3ccccc3Cl)c2n1 | < 70
O=C(Nc1ccsc1C(=O)NC1CCCCC1)c1ccc(F)cc1 | < 70
Cc1ccc(Cn2c(N3CCC(C(=O)NCc4cccs4)CC3)nc3ccccc32)cc1 | < 70

Structure (SMILES) | growth inhibition at single dose [%]
CC(C)(C)CC(C)(C)NCC(O)COc1ccc(Cl)cc1Cl (stereo not drawn) | < 70
COc1ccc2cc(CNc3ncnc4n[nH]cc34)ccc2c1 | < 70
COCC(C)NC(=O)CSc1ncnc2sc(-c3ccccc3)cc12 (stereo not drawn) | < 70
FC(F)(F)c1nc(NCCNc2ccccn2)c2ccccc2n1 | < 70
COc1ccc(C2=NOC(C(N)=O)C2)cc1OC (stereo not drawn) | < 70
CC(=O)c1cc2c(N)c(-c3nc(C(C)(C)C)no3)sc2nc1C | < 70
OC1=C2C(=Nc3ccccc3SC2c2ccc(Br)cc2)c2ccccc21 (stereo not drawn) | < 70
CN1CCN(c2ncnc3c2[nH]c2ccc(Cl)cc23)CC1 | < 70
COc1cc(NC(=O)COc2ccc3[nH]c4ccccc4c(=O)c3c2)c(OC)cc1Cl | < 70
Cc1nn(Cc2ccccc2)c2sc(C(=O)Nc3nc4ccccc4[nH]3)cc12 | < 70
Cc1cc(C(=O)COC(=O)c2ccccc2O)c(C)n1CC1CCCO1 (stereo not drawn) | < 70
CSc1nc(=O)nc(-c2ccc(Cl)cc2)[nH]1 | < 70
Cc1ccc(Sc2nc(-c3cccs3)ns2)cc1 | < 70
COc1ccc(C(=O)C2CC2c2ccc(Cl)cc2)cc1 (stereo not drawn) | < 70
OCCNCc1cc(Br)ccc1OCc1ccc(F)cc1 | < 70
Cc1cc(Nc2ccc3ccccc3c2)n2ncnc2n1 | < 70
COc1ccc(-c2cc3ncnc(NCc4ccc(N5CCN(C)CC5)nc4)c3s2)cc1 | < 70
Cc1cccc(NC(=O)c2cc(S(=O)(=O)N(C)c3ccc(F)cc3)ccc2Cl)n1 | < 70
COc1ccc(-c2cc3c(nn2)-c2ccccc2C3=O)cc1 | < 70
Cc1c(C)n(CCN(C)C)c2ncn3nc(-c4ccccc4O)nc3c12 | < 70
CC(C)(C)c1ccc(C(=O)NCCOc2ccccc2Cl)cc1 | < 70
Cc1cccc2c(=O)n(CC(=O)NCc3ccc(C(=O)N4CCCCC4)cc3)cnc12 | < 70
CNC(=O)CNc1nc(-c2ccccn2)nc2scc(-c3ccccc3)c12 | < 70
c1ccc2c(c1)CN(CC1CC1)CC1(CCN(Cc3c[nH]c4cnccc34)CC1)O2 | < 70

Structure (SMILES) | growth inhibition at single dose [%]
CC(C)(C)c1cc(C(=O)Nc2cccnc2)cc(C(=O)Nc2cccnc2)c1 | < 70
CCCOCc1cc(CN2CCN(c3cccc(Cl)c3)CC2)c(O)c2ncccc12 | < 70
COC(=O)[C@@H](NC(=O)Nc1ccc(-c2nc3ccccc3s2)cc1)C(C)C | < 70
O=C(c1cc(-c2ccccc2)n[nH]1)N1CCN(S(=O)(=O)c2ccccc2)CC1 | < 70
CC[C@H](CO)NCCN[C@H](CC)CO | < 70
Cc1cc(C)n(-c2ccc(NC(=O)C3CCN(Cc4cnc(C)s4)CC3)cc2)n1 | < 70
c1ccc(Nc2nc(-c3ccc4c(c3)OCCO4)cs2)nc1 | < 70
Cc1ccc2[nH]c3c(c2c1)CCCC3NCCCN(C)C (stereo not drawn) | < 70
Cc1nc(NCc2ccc(N3CCN(C)CC3)nc2)c2c(-c3ccccc3)csc2n1 | < 70
O=C(CSc1nnc(/C=C/c2ccc(F)cc2)[nH]1)N(c1ccccc1)C1CCCCC1 | < 70
CCOC(=O)c1ccc(N2CCN(C(C)c3nc(C(C)C)no3)CC2)nc1 (stereo not drawn) | < 70
O=C(Cn1ccnc1[N+](=O)[O-])NCc1ccccc1 | < 70
O=C(NC1CC1)c1ccc(CSCc2ccccc2Cl)o1 | < 70
Cc1cc(C2=NOC(c3cc(Cl)c(F)c(Cl)c3)(C(F)(F)F)C2)ccc1C(=O)NCc1ccc2c(c1)C(C)(C)OB2O (stereo not drawn) | < 70
Cc1ccccc1NC(=O)c1cc2ccccc2c(CN2CCC3(CC2)OCCO3)c1O | < 70
Cc1ccc(-c2noc(CN3CCN(c4cc(C)nc(N)n4)CC3)n2)cc1 | < 70
Oc1ccc(C2=CCN(c3ncnc4ccccc34)CC2)cc1 | < 70
CC1(C)OB(O)c2ccc(C3=NOC(c4cc(Cl)c(F)c(Cl)c4)(C(F)(F)F)C3)cc21 (stereo not drawn) | < 70
Cc1ccc(C(=O)c2oc3ccc4c(C)cc(=O)oc4c3c2C)cc1 | < 70
N=C(N)c1ccc(-c2cc(-c3ccccc3)on2)cc1 | < 70
CCOC(=O)c1c[nH]c2cc(Cl)cc(Cl)c2c1=O | < 70
